Where two headings read alike, the source gives them in different places.
Legend:
[1] = system: stationary-phase promastigotes of L. amazonensis; test: Antileishmanial activity: inhibition of promastigote viability (MTT); type: cell-based, Leishmania amazonensis
Method: Cell viability was assessed by measuring the cleavage of 2 mg/mL of MTT [3-(4.5-dimethylthiazol-2-yl)-2.5-diphenyl tetrazolium bromide] (Sigma). Absorbances were measured by using a multiwell scanning spectrophotometer (LABTRADE, model 660) at a wavelength of 570 nm. Amphotericin B (1 μM) was used as a positive control. The concentration of the products needed to inhibit 50% of the Leishmania viability (IC50) was determined by applying the sigmoidal regression of the concentration-response curves, using different concentrations of the compounds.

murine macrophages [2] = system: murine macrophages
Method: (§1) Cell viability was assessed by the MTT assay, and amphotericin B was used as a control. The selectivity index (SI) of the products was calculated by determining the ratio between IC50 and CC50. The hemolytic activity was investigated by incubating the products, in the same concentrations used for cytotoxicity evaluation, with a 5% red blood cell (human O^+) suspension for 1 h at 37°C. Briefly, the erythrocyte suspension was centrifuged (1000 ×g for 10 min), and cell lysis was determined spectrophotometrically (570 nm), as described [24]. The absence of (blank) or 100% presence of hemolysis (positive control) was determined by replacing the products for an equal volume of PBS or distilled water, respectively. The results were determined by the percentage of hemolysis when compared with the negative and positive controls. Data shown are representative of four independent experiments, performed in triplicate, which presented similar results.

murine macrophages [3] = test: Cytotoxicity assay on macrophages (MTT); details: for SI, Selectivity Index (ratio between CC50 and IC50): murine macrophages vs L. amazonensis promastigotes
Method: as §1

O+ human red blood cells = test: Hemolytic activity; type: cell-based
Method: as §1

[4] = system: Leishmania amazonensis invasion of murine macrophages; test: Inhibition of infection in phagocytic cells (pre-treated promastigotes); type: cell-based; details: for reductions in infectivity of parasites after treatment: parasites preincubated 4 h at 24°C, versus about 87% infected macrophages with untreated parasites, concentration not given; for number of amastigotes per cell / Percentage of infected macrophages after treatment: 4 h at 24°C; for number of amastigotes per cell: untreated 8.4; for Percentage of infected macrophages after treatment: untreated 87.0
Method: The inhibitory effect of quercetin 3-O-methyl ether and strychnobiflavone on the Leishmania invasion of macrophages was evaluated using promastigotes of L. amazonensis. Parasites (1 × 10^6 cells) were preincubated with different concentrations of quercetin 3-O-methyl ether (0, 70, 140, or 280 μM) or strychnobiflavone (0, 40, 80, or 160 μM) for 4 h at 24°C. […] After incubation, parasites were washed three times with RPMI 1640 medium, quantified, and incubated for 24 h with murine macrophages, using a ratio of 10 parasites per 1 macrophage. After, cells were washed, set, and stained to determine the percentage of infected macrophages by counting 200 cells in triplicate.

[5] = system: L. amazonensis in infected murine macrophages; test: Treatment of infected macrophages; type: cell-based, Leishmania amazonensis; details: for number of amastigotes per cell: untreated 8.4; for Percentage of infected macrophages after treatment: untreated 87.0
Method: Murine macrophages (5 × 10^5 cells) were plated on round glass coverslips inside the wells of a 24-well culture plate (Nunc) in an RPMI 1640 medium supplemented with 20% FBS, 2 mM L-glutamine, 200 U/mL penicillin, and 100 μg/mL streptomycin, at pH 7.4. After 24 h of incubation at 37°C in 5% CO2, stationary-phase promastigotes of L. amazonensis were added to the wells (5 × 10^6 cells), and the cultures were incubated for 24 h at 37°C in 5% CO2. A previous titration curve was performed to determine the minimum time incubation of parasites with the macrophages, in order to obtain the maximum of infection into the host cells (data not shown). Next, free parasites were removed by extensive washing with an RPMI 1640 medium, and infected macrophages were quantified and treated for 48 h with quercetin 3-O-methyl ether (0, 70, 140, or 280 μM) or strychnobiflavone (0, 40, 80 or 160 μM) for 48 h at […] in 5% CO2. Cells were washed in RPMI 1640 and incubated with 4% paraformaldehyde for 15 min, at which time they were treated with 70% ethanol in an ice bath for 4 h and again washed three times with sterile PBS. Amphotericin B was used as a control. The percentage of the inhibition of Leishmania intra-macrophage viability was determined by counting 200 cells in triplicate.

[6] = Cytotoxicity assay on macrophages (MTT); details: BALB/c, mouse, murine macrophages
Method: as §1

[7] = Leishmania amazonensis, 48 h, stationary-phase promastigotes, 48 h at 24°C, MTT, read-out: IC50 (inhibitory concentration of 50% of promastigotes of L. amazonensis)
[8] = promastigotes pre-treated with 70 μM
[9] = promastigotes pre-treated with 140 μM
[10] = promastigotes pre-treated with 280 μM
[11] = infected macrophages treated with 70 μM for 48 h
[12] = infected macrophages treated with 140 μM for 48 h
[13] = infected macrophages treated with 280 μM for 48 h
[14] = promastigotes pre-treated with 40 μM
[15] = promastigotes pre-treated with 80 μM
[16] = promastigotes pre-treated with 160 μM
[17] = infected macrophages treated with 40 μM for 48 h
[18] = infected macrophages treated with 80 μM for 48 h
[19] = infected macrophages treated with 160 μM for 48 h

## C[C@@H]1[C@H](O)[C@@H](C)/C=C/C=C/C=C/C=C/C=C/C=C/C=C/[C@H](O[C@@H]2O[C@H](C)[C@@H](O)[C@H](N)[C@@H]2O)C[C@@H]2O[C@](O)(C[C@@H](O)C[C@@H](O)[C@H](O)CC[C@@H](O)C[C@@H](O)CC(=O)O[C@H]1C)C[C@H](O)[C@H]2C(=O)O [AmpB, amphotericin B, reference compound]
[1]; [7]
  IC50: 0.1 ± 0.13 µM
Murine macrophages [2]
  toxicity in murine macrophages (in words): highly cytotoxic
Murine macrophages [3]
  SI, Selectivity Index (ratio between CC50 and IC50): 9.9

## COc1c(-c2ccc(O)c(O)c2)oc2cc(O)cc(O)c2c1=O [Quercetin 3-O-methyl ether, quercetin 3-O-methyl ether]
[1]; [7]
  IC50: 8.08 µM
[1]; stationary-phase promastigotes, 48 h at 24°C, MTT, listed as Quercetin 3-methyl ether, read-out: IC50 (inhibitory concentration of 50% of promastigotes of L. amazonensis)
  IC50: 8.1 ± 1.5 µM
O+ human red blood cells
  hemolytic activity / damage to human erythrocytes (in words): no significant damage
O+ human red blood cells; human, 1 h
  RBC50 (50% of human red blood cell lysis): 155.0 ± 33.2 µM
[4]
  reductions in infectivity of parasites after treatment: ~47%
[4]; [8]
  number of amastigotes per cell: 4.5
  Percentage of infected macrophages after treatment: 67.8%
[4]; [9]
  number of amastigotes per cell: 3.9
  Percentage of infected macrophages after treatment: 61.9%
[4]; [10]
  number of amastigotes per cell: 2.4
  Percentage of infected macrophages after treatment: 46.1%
[5]; [11]
  number of amastigotes per cell: 5.6
  Percentage of infected macrophages after treatment: 72.4%
[5]; [12]
  number of amastigotes per cell: 4.4
  Percentage of infected macrophages after treatment: 68.0%
[5]; [13]
  number of amastigotes per cell: 1.7
  Percentage of infected macrophages after treatment: 46.3%
Murine macrophages [2]
  toxicity in murine macrophages (in words): no significant toxicity
Murine macrophages [3]
  SI, Selectivity Index (ratio between CC50 and IC50): 24.62
Murine macrophages [3]; listed as Quercetin 3-methyl ether
  SI, Selectivity Index (ratio between CC50 and IC50): 24.6

## COc1c(-c2ccc(O)c(O)c2-c2c(O)cc(O)c3c(=O)c(OC)c(-c4ccc(O)c(O)c4)oc23)oc2cc(O)cc(O)c2c1=O [Strychnobiflavone, strychnobiflavone]
[1]; Leishmania amazonensis, 48 h, read-out: IC50 (inhibitory concentration of 50% of promastigotes of L. amazonensis), stationary-phase promastigotes, 48 h at 24°C, MTT
  IC50: 3.16 µM
[1]; stationary-phase promastigotes, 48 h at 24°C, MTT, read-out: IC50 (inhibitory concentration of 50% of promastigotes of L. amazonensis)
  IC50: 3.2 ± 0.2 µM
O+ human red blood cells; 5% human O+ red blood cell suspension, 1 h at 37°C
  RBC50 (50% of human red blood cell lysis): 209.6 ± 2.5 µM
O+ human red blood cells; O+ human red blood cells
  hemolytic activity / damage to human erythrocytes (in words): no significant damage
[4]
  reductions in infectivity of parasites after treatment: ~72.6%
[4]; [14]
  number of amastigotes per cell: 3.0
  Percentage of infected macrophages after treatment: 53.0%
[4]; [15]
  number of amastigotes per cell: 2.2
  Percentage of infected macrophages after treatment: 47.8%
[4]; [16]
  number of amastigotes per cell: 1.2
  Percentage of infected macrophages after treatment: 23.8%
[5]; [17]
  number of amastigotes per cell: 1.5
  Percentage of infected macrophages after treatment: 37.9%
[5]; [18]
  number of amastigotes per cell: 1.3
  Percentage of infected macrophages after treatment: 26.3%
[5]; [19]
  number of amastigotes per cell: 0.4
  Percentage of infected macrophages after treatment: 9.6%
[6]
  CC50 at 48 h: 125 ± 4.5 µM
Murine macrophages [3]; in vitro, after incubation with the products
  toxicity in murine macrophages (in words): no significant toxicity
Murine macrophages [3]
  SI, Selectivity Index (ratio between CC50 and IC50): 39.6
Murine macrophages [3]; listed as strychnobiflavone
  SI, Selectivity Index (ratio between CC50 and IC50): 39.55

From article PMC3806161, “Strychnos pseudoquina and Its Purified Compounds Present an Effective In Vitro Antileishmanial Activity” (Evidence-based Complementary and Alternative Medicine : eCAM, 2013)
